In ChEMBL document CHEMBL1201862, “PubChem BioAssay data set” (2004):
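Cells were grown in 96-well plates and exposed to each compound for 48 hours at five concentrations; endpoints were interpolated linearly between bracketing concentrations, or set to the highest concentration if not reached. Abbreviation: GI50, concentration required for 50% inhibition of growth.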 Activity calls are given as the source filed them. Rule as the data show it: active = GI50 up to about 1.1 µM and inactive = higher.

Experiments:
Test in all cases: growth of human tumour cells (NCI), 48 h
CAKI-1 = test system: CAKI-1
LOX IMVI = test system: LOX IMVI
K562 = test system: K562
SK-OV-3 = test system: SK-OV-3
NCI-H23 = test system: NCI-H23
UACC-257 = test system: UACC-257
HCT-116 = test system: HCT-116
HOP-92 = test system: HOP-92
NCI-H522 = test system: NCI-H522
SNB-19 = test system: SNB-19
SNB-75 = test system: SNB-75
NCI-H460 = test system: NCI-H460
SF-268 = test system: SF-268
SK-MEL-28 = test system: SK-MEL-28
SF-295 = test system: SF-295
IGROV-1 = test system: IGROV-1
RXF 393 = test system: RXF 393

Compound | GI50 (CAKI-1) | GI50 (LOX IMVI) | GI50 (K562) | GI50 (SK-OV-3) | GI50 (NCI-H23) | GI50 (UACC-257) | GI50 (HCT-116) | GI50 (HOP-92) | GI50 (NCI-H522) | GI50 (SNB-19) | GI50 (SNB-75) | GI50 (NCI-H460) | GI50 (SF-268) | GI50 (SK-MEL-28) | GI50 (SF-295) | GI50 (IGROV-1) | GI50 (RXF 393)
C/C(=N\N(c1ccccc1)c1ccccc1)c1c(O)cc(C)oc1=O | 90.2 µM (inactive) | > 100 µM (inactive) | 62.7 µM (inactive) | > 100 µM (inactive) | 40.1 µM (inactive) | 47.8 µM (inactive) | 45.1 µM (inactive) | 46.3 µM (inactive) | > 100 µM (inactive) | > 100 µM (inactive) | > 100 µM (inactive) | 46.5 µM (inactive) | > 100 µM (inactive) | > 100 µM (inactive) | > 100 µM (inactive) |  | 
N#CCCc1nc2ccc(Br)cc2c(=O)n1CCO | > 100 µM (inactive) | > 100 µM (inactive) | > 100 µM (inactive) | > 100 µM (inactive) | > 100 µM (inactive) | > 100 µM (inactive) |  | > 100 µM (inactive) | > 100 µM (inactive) |  | > 100 µM (inactive) |  | > 100 µM (inactive) | > 100 µM (inactive) | > 100 µM (inactive) | > 100 µM (inactive) | > 100 µM (inactive)
COc1cccc(-c2cc(O)c3cc(OC)c(OC)cc3n2)c1 |  | 64.7 µM (inactive) | 40.3 µM (inactive) | 87.3 µM (inactive) | 41.1 µM (inactive) | 28.9 µM (inactive) |  |  | 19.8 µM (inactive) | 58.2 µM (inactive) | 34.8 µM (inactive) | 30.3 µM (inactive) |  | > 100 µM (inactive) |  | 89.3 µM (inactive) | 
Cc1cccc(C(=O)O)c1C(=O)c1cccc2ccccc12 | > 100 µM (inactive) | > 100 µM (inactive) | 65 µM (inactive) | > 100 µM (inactive) | > 100 µM (inactive) | > 100 µM (inactive) | > 100 µM (inactive) |  | > 100 µM (inactive) | > 100 µM (inactive) | > 100 µM (inactive) | > 100 µM (inactive) | > 100 µM (inactive) | > 100 µM (inactive) | > 100 µM (inactive) | > 100 µM (inactive) | > 100 µM (inactive)
C=C1Cc2cc(OC)c(OC)c(OC)c2-c2ccc(SC)c(=O)cc21 |  | < 0.01 µM (active) | < 0.01 µM (active) | < 0.01 µM (active) | < 0.01 µM (active) | 0.361 µM (active) | < 0.01 µM (active) |  | < 0.01 µM (active) |  |  | < 0.01 µM (active) | < 0.01 µM (active) | < 0.01 µM (active) | < 0.01 µM (active) | < 0.0424 µM (active) | < 0.01 µM (active)
O=[N+]([O-])c1cccc(C2SCc3nc4ccccc4n32)c1 (stereo not drawn) | 21.8 µM (inactive) | 88.3 µM (inactive) | 49.5 µM (inactive) | > 100 µM (inactive) | 64.4 µM (inactive) | 39.3 µM (inactive) |  | 19 µM (inactive) |  | > 100 µM (inactive) |  | > 100 µM (inactive) | > 100 µM (inactive) | > 100 µM (inactive) | 73.5 µM (inactive) | 33 µM (inactive) | 73.5 µM (inactive)
Cc1cc(C(=O)NCCN(C)C)c2nc3ccccc3nc2c1 |  | 2.22 µM (inactive) | 2.05 µM (inactive) | 11.7 µM (inactive) | 5.27 µM (inactive) | 4.16 µM (inactive) | 1.48 µM (inactive) | 1.06 µM (active) | 16.6 µM (inactive) | 6.79 µM (inactive) | 4.52 µM (inactive) |  |  | 5.05 µM (inactive) | 4.55 µM (inactive) | 4.81 µM (inactive) | 5.37 µM (inactive)
NC(=O)NC1C(C(N)=O)N(Cc2ccccc2)C(=O)N1Cc1ccccc1 (stereo not drawn) | > 100 µM (inactive) | > 100 µM (inactive) | > 100 µM (inactive) | > 100 µM (inactive) | > 100 µM (inactive) | > 100 µM (inactive) | > 100 µM (inactive) | > 100 µM (inactive) | > 100 µM (inactive) | > 100 µM (inactive) | > 100 µM (inactive) | > 100 µM (inactive) | > 100 µM (inactive) | > 100 µM (inactive) | > 100 µM (inactive) | > 100 µM (inactive) | 
O=C1C(c2ccccc2)=C(c2ccccc2)[C@H](c2ccccc2)[C@]1(Cc1nnn(-c2ccc([N+](=O)[O-])cc2)c1N1CCOCC1)c1ccccc1 | > 37.5 µM (inactive) | 24.5 µM (inactive) | > 37.5 µM (inactive) | > 37.5 µM (inactive) | > 37.5 µM (inactive) | > 37.5 µM (inactive) | 28.7 µM (inactive) | 0.00621 µM (active) |  | 35.9 µM (inactive) | > 37.5 µM (inactive) | > 37.5 µM (inactive) |  | > 37.5 µM (inactive) | 35.6 µM (inactive) | > 37.5 µM (inactive) | 9.62 µM (inactive)
